Drawing on ChEMBL document CHEMBL6114992, “Design, synthesis, biological evaluation, and mechanism of action of new pyrazines as anticancer agents in vitro and in vivo” (Bioorg Med Chem, 2025), this text covers IC50 for 28 compounds.

Structures are written as SMILES.

Common to all, as to assay type: functional, cell-based
One experiment concerns THP-1. The experiment can be described thus: Antiproliferative activity against human THP-1 cells assessed as inhibition of cell growth incubated for 72 hrs by MTT assay. The note with it: THP-1, 72 h.
For the next experiment, the system named is KG-1. The experiment can be described thus: Antiproliferative activity against human KG-1 cells assessed as inhibition of cell growth incubated for 72 hrs by MTT assay. Particulars: KG-1, 72 h. Background: Tetrazolium dyes change colour on reduction, which living cells bring about.
Another experiment concerns U-937. The experiment can be described thus: Antiproliferative activity against human U-937 cells assessed as inhibition of cell growth incubated for 72 hrs by MTT assay. The note with it: U-937, 72 h.
The subject of the next experiment is SK-OV-3. The experiment can be described thus: Antiproliferative activity against human SK-OV-3 cells assessed as inhibition of cell growth incubated for 72 hrs by MTT assay. Particulars: SK-OV-3, 72 h.
The nature of experiment [1]: Antiproliferative activity against human SK-OV-3/Taxol cells assessed as inhibition of cell growth incubated for 72 hrs by MTT assay. Particulars: SK-OV-3, 72 h.

The term IC50 denotes the midpoint of a concentration-inhibition curve. For `CCc1nccnc1C(=O)/C=C/C=C/c1ccccc1`, the IC50 in the experiment with THP-1 came out at 21.6 µM; with KG-1, 19.1 µM; in the experiment on U-937 it was 7.76 µM; with SK-OV-3, 33 µM; in experiment [1], 34 µM.
The corresponding values for `CCc1nccnc1C(=O)/C=C/c1ccc(OC)c(OC)c1` are 8.36 µM, 9.45 µM, 7.95 µM, 6.71 µM and 7.92 µM.
Regarding `CCc1nccnc1C(=O)/C=C/c1ccc(C)cc1`, the half-inhibitory concentration (IC50) in the experiment with THP-1 was determined as 10.5 µM; in the experiment with KG-1 it was 10 µM; with U-937, 9.32 µM; in the experiment with SK-OV-3, 6.26 µM; in experiment [1], 7.33 µM.
Consider `COc1ccc(/C=C/C(=O)c2cnccn2)cc1OC`, for which the 50% inhibitory concentration (IC50) in the experiment with THP-1 is 6.55 µM; in the experiment with KG-1, 4.84 µM; with U-937, 4.79 µM; in the experiment with SK-OV-3, above 50 µM; in experiment [1], above 50 µM.
Turning to `Cc1nccnc1C(=O)/C=C/c1ccc(-c2ccccc2)cc1`, the IC50 in the experiment with THP-1 turned out to be 7.63 µM; in the experiment with KG-1, 3.25 µM; in the experiment on U-937 it was 2.38 µM; in the experiment with SK-OV-3, 1.66 µM; in experiment [1] it was 1.67 µM.
As to `CCc1nccnc1C(=O)/C=C/c1ccc(S(C)(=O)=O)cc1`, the IC50 is 1.38 µM with THP-1; 3.64 µM in the experiment on KG-1; 1.94 µM in the experiment on U-937; 3.42 µM in the experiment with SK-OV-3; 6.19 µM in experiment [1].
As to `Cc1nccnc1C(=O)/C=C/c1ccc[nH]1`, the IC50 in the experiment with THP-1 was determined as 5.72 µM; in the experiment with KG-1, 7.15 µM; in the experiment on U-937, 6.21 µM; in the experiment on SK-OV-3, 4.81 µM; in experiment [1], 5.38 µM.
The corresponding values for `Cc1nccnc1C(=O)/C=C/c1ccc(Cl)cc1` are 17 µM, 10.4 µM, 2.96 µM, 9.75 µM and 11.8 µM.
As for `O=C(/C=C/c1cc2ccccc2o1)c1cnccn1`, the IC50 is 13.5 µM with THP-1; 9.66 µM in the experiment on KG-1; 10.7 µM in the experiment with U-937; above 50 µM in the experiment on SK-OV-3; above 50 µM in experiment [1].
As for `O=C(/C=C/c1ccc(F)cc1)c1cnccn1`, the IC50 (in the experiment on THP-1; with KG-1; in the experiment with U-937; with SK-OV-3; in experiment [1]) was above 50 µM throughout.
With `Cc1ccc(/C=C/C(=O)c2nccnc2C)cc1`, the 50% inhibitory concentration (IC50) amounted to 1.93 µM in the experiment on THP-1; 3.83 µM with KG-1; 2.6 µM in the experiment with U-937; 3.83 µM in the experiment with SK-OV-3; 3.3 µM in experiment [1].
Regarding `CCc1nccnc1C(=O)/C=C/c1ccc(Br)cc1`, the IC50 in the experiment on THP-1 was determined as 5.34 µM; in the experiment on KG-1, 9.31 µM; with U-937, 1.93 µM; with SK-OV-3, 3.88 µM; in experiment [1] it was 5.93 µM.
The corresponding values for `CCc1nccnc1C(=O)/C=C/c1ccc(C(F)(F)F)cc1` are 3.04 µM, 9.21 µM, 5.78 µM, 5.92 µM and 7.29 µM.
As for `CCc1nccnc1C(=O)/C=C/C=C/c1ccc(F)cc1`, the IC50 turned out to be 7.16 µM with THP-1; 6.91 µM in the experiment on KG-1; 5.25 µM with U-937; 7.98 µM with SK-OV-3; 8.25 µM in experiment [1].
The corresponding values for `CSc1ccc(/C=C/C(=O)c2nccnc2C)cc1` are 6.01 µM, 6.84 µM, 3.9 µM, 4.72 µM and 6.8 µM.
On the same counts, the results for `Cc1cccc(/C=C/C(=O)c2cnccn2)c1` are 20.3 µM, 9.84 µM, 16.3 µM, 28.5 µM and 25.9 µM.
`N#Cc1ccc(/C=C/C(=O)c2cnccn2)cc1`: the IC50 was 16.2 µM in the experiment with THP-1; 15.9 µM with KG-1; 23.2 µM with U-937; 11.2 µM in the experiment on SK-OV-3; 12.6 µM in experiment [1].
On the same counts, the results for `CCc1nccnc1C(=O)/C=C/c1ccc(SC)cc1` are 2.67 µM, 9.34 µM, 4.29 µM, 7.94 µM and 8.12 µM.
The corresponding values for `Cc1ccc(/C=C/C(=O)c2cnccn2)cc1` are 19.9 µM, 11.4 µM, 23 µM, 10.1 µM and 16.6 µM.
As for `Cc1nccnc1C(=O)/C=C/c1cc2ccccc2o1`, the IC50 stood at 1.9 µM in the experiment with THP-1; 3.3 µM in the experiment on KG-1; 2.93 µM in the experiment on U-937; 4.63 µM with SK-OV-3; 1.74 µM in experiment [1].
In the case of `Cc1nccnc1C(=O)/C=C/c1ccccc1`, the IC50 with THP-1 stood at 1.79 µM; in the experiment with KG-1, 1.64 µM; with U-937, 5.43 µM; with SK-OV-3 it was 5.17 µM; in experiment [1] it was 5.04 µM.
Take `O=C(/C=C/c1ccc(C(F)(F)F)cc1)c1cnccn1`: the 50% inhibitory concentration (IC50) in the experiment on THP-1 turned out to be 8.3 µM; with KG-1, 7.87 µM; in the experiment on U-937, 11.9 µM; in the experiment on SK-OV-3, 9.72 µM; in experiment [1] it was 10.4 µM.
Turning to `CCc1nccnc1C(=O)/C=C/C=C/CCC=C(C)C`, the IC50 with THP-1 is above 50 µM; with KG-1, 35.7 µM; with U-937 it was 39.7 µM; in the experiment on SK-OV-3, above 50 µM; in experiment [1], above 50 µM.
Consider `COc1ccc(/C=C/C(=O)c2cnccn2)cc1`, for which the half-inhibitory concentration (IC50) with THP-1 came to 10.3 µM; in the experiment with KG-1 it was 8.71 µM; in the experiment on U-937, 15.2 µM; in the experiment on SK-OV-3 it was 21.9 µM; in experiment [1], 21.1 µM.
`CCc1nccnc1C(=O)/C=C/c1ccccc1F`: the IC50 in the experiment with THP-1 was found to be 3.52 µM; in the experiment on KG-1, 3.07 µM; in the experiment on U-937, 2.23 µM; with SK-OV-3 it was 3.42 µM; in experiment [1], 3.67 µM.
On the same counts, the results for `CCc1nccnc1C(=O)/C=C/c1ccc2c(c1)OC(F)(F)O2` are 5.36 µM, 9.09 µM, 5.48 µM, 3.74 µM and 3.72 µM.
On the same counts, the results for `Cc1nccnc1C(=O)/C=C/c1ccccc1F` are 5.5 µM, 5.38 µM, 22.6 µM, 10.2 µM and 10.7 µM.
The corresponding values for `O=C(/C=C/c1ccc2c(c1)OC(F)(F)O2)c1cnccn1` are 20.3 µM, 17.3 µM, 14.4 µM, above 50 µM and above 50 µM.
